From ChEMBL document CHEMBL1201862, “PubChem BioAssay data set” (2004) come the findings set out here.

Molecules are shown by their SMILES.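 48-hour exposure; five concentrations; linearly interpolated endpoints. GI50 is the concentration that inhibits growth by half.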 Active and inactive are the calls of the source. No stated cut-off is given here; in the data, active = GI50 up to about 1.1 µM and inactive = higher.

Some test systems named below: NCI-H460; KM12; MCF7; SK-MEL-28; TK-10; ACHN; SF-295; 786-0; SN12C; COLO 205; UACC-257; Malme-3M; BT-549; MOLT-4; NCI-H23; A549; MDA-MB-435; HCT-15; SK-OV-3; MDA-N.
What all share (assay): NCI anticancer screen, dose series, 48 h

Turning to `CCC1c2[nH]c3ccccc3c2C[C@H]2C(=O)NC(COC(C)(C)C)C(=O)N12` (some centres not stated), the GI50 in the test on NCI-H460 is 31.2 µM (inactive); in the test on KM12, 27.9 µM (inactive); in the test on MCF7, 41.8 µM (inactive); in the test on SK-MEL-28, 86.3 µM (inactive); in the test with TK-10, 27.1 µM (inactive); in the test on ACHN it was 42 µM (inactive). The GI50 with SF-295 was 19.4 µM (inactive); in the test with 786-0, 61.2 µM (inactive); in the test on SN12C, 45.5 µM (inactive); in the test with COLO 205 it was 19.7 µM (inactive); in the test with UACC-257, 25.2 µM (inactive); with Malme-3M, 21.7 µM (inactive). Moreover, the GI50 in the test on BT-549 is 34 µM (inactive); with MOLT-4 it was 31.4 µM (inactive); with NCI-H23, 32.9 µM (inactive); with A549, 39.3 µM (inactive); in the test on MDA-MB-435, 37.7 µM (inactive); with HCT-15 it was 48 µM. Moreover, the GI50 in the test with SK-OV-3 is 63 µM (inactive).
Take `Cc1ccc(S(=O)(=O)NC(=O)NC2=NC(C)(C)N(c3ccc(Cl)c(Cl)c3)C(N)=N2)cc1`: the GI50 with NCI-H460 is 36 µM (inactive); in the test on KM12 it was 65.8 µM (inactive); in the test with MCF7, 25.8 µM (inactive); with SK-MEL-28 it was > 100 µM (inactive); in the test on TK-10, 84.7 µM (inactive); in the test on ACHN, 11.1 µM (inactive). The GI50 in the test with SF-295 is 41.5 µM (inactive); in the test on 786-0, 8.3 µM (inactive); in the test on SN12C, 20.6 µM (inactive); in the test with COLO 205 it was 10.2 µM (inactive); in the test with UACC-257 it was 36 µM (inactive); in the test on MDA-N, 5.04 µM (inactive). Besides, the GI50 was 4.01 µM (inactive) in the test with Malme-3M; > 100 µM (inactive) in the test with BT-549; 7.43 µM (inactive) with MOLT-4; 11.4 µM (inactive) in the test on NCI-H23; 2.92 µM (inactive) in the test with A549; 61.2 µM in the test on HCT-15. Also, in the test on SK-OV-3, the GI50 was > 100 µM (inactive).
On to `[N-]=[N+]=C1C(=O)c2ccccc2-c2ccccc21`, for which the GI50 in the test on NCI-H460 was 32.1 µM (inactive); in the test with KM12 it was 39.2 µM (inactive); in the test on MCF7, 25.9 µM (inactive); in the test on SK-MEL-28, 60.8 µM (inactive); in the test on TK-10 it was 54 µM (inactive); in the test with ACHN, 38.6 µM (inactive). For the same compound, the GI50 in the test with SF-295 was 33 µM (inactive); in the test on 786-0 it was 26.1 µM (inactive); in the test with SN12C, 35.2 µM (inactive); in the test with COLO 205, 32.1 µM (inactive); in the test on UACC-257 it was 36.7 µM (inactive); with MDA-N, 43.7 µM (inactive). Further, the GI50 with BT-549 was 34.4 µM (inactive); in the test on MOLT-4, 24.9 µM (inactive); with NCI-H23 it was 35 µM (inactive); with A549, 30.4 µM (inactive); with MDA-MB-435 it was 40.7 µM (inactive); with HCT-15, 29 µM. Also, the GI50 with SK-OV-3 is 39.5 µM (inactive).
With `COc1ccc2c(c1)C(=O)c1ccccc1C2`, the GI50 was 61.8 µM (inactive) in the test on NCI-H460; 63 µM (inactive) in the test with KM12; 64 µM (inactive) in the test with MCF7; > 100 µM (inactive) in the test with SK-MEL-28; 48.1 µM (inactive) in the test with TK-10; > 100 µM (inactive) with ACHN. For the same compound, the GI50 in the test with SF-295 was 36.5 µM (inactive); in the test on 786-0 it was 73.8 µM (inactive); in the test on SN12C, > 100 µM (inactive); with COLO 205, 54.5 µM (inactive); in the test on UACC-257, 33.8 µM (inactive); in the test on MDA-N it was > 100 µM (inactive). The GI50 in the test on BT-549 is 64.1 µM (inactive); in the test on MOLT-4 it was 28.6 µM (inactive); with NCI-H23, 96.4 µM (inactive); in the test on A549, 86.7 µM (inactive); in the test on MDA-MB-435, 41.7 µM (inactive); in the test on HCT-15 it was 60.7 µM. Moreover, the GI50 in the test with SK-OV-3 was 33.5 µM (inactive).
On to `Cc1nc2ccccc2c(=O)n1/N=C(\N=N\c1cc(Cl)ccc1Cl)c1ccccc1`, for which the GI50 in the test on NCI-H460 was 45.8 µM (inactive); in the test on KM12, 10.3 µM (inactive); with MCF7, 8.04 µM (inactive); in the test with SK-MEL-28, 47.2 µM (inactive); with TK-10, > 93.5 µM (inactive); in the test with ACHN it was > 84.9 µM (inactive). For the same compound, the GI50 in the test on SF-295 is 44.9 µM (inactive); in the test on 786-0, 74.1 µM (inactive); with SN12C it was > 54.2 µM (inactive); in the test with COLO 205, 61.1 µM (inactive); in the test with UACC-257, 17.4 µM (inactive); in the test on Malme-3M, 41 µM (inactive). In addition, the GI50 with BT-549 is 38.6 µM (inactive); in the test on MOLT-4, 35 µM (inactive); with NCI-H23, 50.7 µM (inactive); in the test with A549, 71 µM (inactive); in the test on MDA-MB-435, 21.3 µM (inactive); in the test on HCT-15 it was 31.2 µM. Also, in the test on SK-OV-3, the GI50 was > 63 µM (inactive).
Turning to `O=c1[nH]ncc2[nH]c3c4ccccc4ccc3c12`, the GI50 is 32.1 µM (inactive) in the test on NCI-H460; 37.4 µM (inactive) in the test with KM12; 18.4 µM (inactive) in the test on MCF7; 28.6 µM (inactive) in the test on TK-10; 27.9 µM (inactive) in the test on ACHN; 22.6 µM (inactive) in the test with SF-295. Moreover, the GI50 in the test on 786-0 was 61.7 µM (inactive); in the test with COLO 205, 24.2 µM (inactive); with MDA-N it was 26.4 µM (inactive); in the test with Malme-3M it was 19.6 µM (inactive); in the test with BT-549, 93.8 µM (inactive); with MOLT-4, 35.6 µM (inactive). Also, the GI50 is 22.2 µM (inactive) in the test on A549, 18 µM (inactive) in the test on MDA-MB-435, 12.4 µM in the test with HCT-15 and 31.1 µM (inactive) in the test with SK-OV-3.
On to `CCOC(=O)C1(C(N)=O)C(=O)c2ccncc2C1=O` (configuration not stated), for which the GI50 in the test on NCI-H460, in the test with KM12, with MCF7, in the test with SK-MEL-28, in the test on ACHN and in the test on SF-295 was > 100 µM (inactive) throughout. Besides, the GI50 in the test on 786-0, in the test on SN12C, in the test on COLO 205, in the test with UACC-257, in the test on MDA-N and in the test with Malme-3M was > 100 µM (inactive) each time. The GI50 is > 100 µM (inactive) with BT-549; > 100 µM (inactive) with NCI-H23; > 100 µM (inactive) in the test with A549; > 100 µM (inactive) in the test with MDA-MB-435; more than 100 µM in the test with HCT-15; > 100 µM (inactive) with SK-OV-3.
Take `COc1cc(/C=C/C(=O)OC2C(O)C3CC(OC(=O)c4cc(OC)c(OC)c(OC)c4)CC2N3C)cc(OC)c1OC` (configuration not stated): the GI50 in the test with NCI-H460 was 21.8 µM (inactive); with KM12 it was 25.3 µM (inactive); with MCF7 it was 23 µM (inactive); in the test with TK-10, > 50 µM (inactive); in the test with ACHN it was 21.9 µM (inactive); with SF-295, 23.4 µM (inactive). Besides, the GI50 in the test on 786-0 was 18.5 µM (inactive); with SN12C, 9.89 µM (inactive); in the test on COLO 205, 12.3 µM (inactive); with UACC-257, > 50 µM (inactive); in the test on MDA-N, 36.4 µM (inactive); in the test on BT-549 it was > 50 µM (inactive). In addition, the GI50 is 46 µM (inactive) in the test with MOLT-4; > 50 µM (inactive) with NCI-H23; > 50 µM (inactive) in the test on A549; 23.6 µM (inactive) in the test with MDA-MB-435; 28.1 µM with HCT-15; 21.8 µM (inactive) with SK-OV-3.
For the compound `O=S(=O)(O)c1ccc(/N=N\c2c(O)ccc3cc(Br)ccc23)cc1`, the GI50 in the test with KM12, in the test on SK-MEL-28, in the test on TK-10, with ACHN, in the test with SF-295 and with 786-0 was > 100 µM (inactive) each time. Also, the GI50 in the test on SN12C, in the test with COLO 205, in the test on UACC-257, in the test with MDA-N, in the test on Malme-3M and in the test on BT-549 was > 100 µM (inactive) each time. Besides, the GI50 with MOLT-4 is > 100 µM (inactive); with NCI-H23 it was > 100 µM (inactive); with A549, > 100 µM (inactive); in the test with MDA-MB-435, > 100 µM (inactive); with HCT-15 it was more than 100 µM; with SK-OV-3, > 100 µM (inactive).
Consider `OCC1OC(c2n[nH]c3c(O)ncnc23)C(O)C1O` (configuration not stated), for which the GI50 with NCI-H460 is 10.6 µM (inactive); in the test with KM12 it was 16.7 µM (inactive); in the test on MCF7 it was 28.7 µM (inactive); in the test with SK-MEL-28, 50 µM (inactive); in the test on ACHN it was 4.01 µM (inactive); in the test on SF-295 it was 33.1 µM (inactive). Further, the GI50 in the test on 786-0 is 9.4 µM (inactive); in the test on SN12C it was 10.3 µM (inactive); in the test with COLO 205, 13.9 µM (inactive); in the test with UACC-257, > 100 µM (inactive); with MDA-N, 31.7 µM (inactive); in the test with Malme-3M, 16.1 µM (inactive). The GI50 was 56.8 µM (inactive) with BT-549; 5.37 µM (inactive) in the test on MOLT-4; 32.4 µM (inactive) with NCI-H23; 34.4 µM (inactive) with MDA-MB-435; 6.03 µM in the test on HCT-15; 2.89 µM (inactive) with SK-OV-3.
On to `CNc1nc(OC)c2c(n1)n(C)c[n+]2C` [HETEROMINE B], for which the GI50 with NCI-H460, in the test with KM12, with SK-MEL-28, with TK-10, in the test on ACHN and in the test with SF-295 was > 100 µM (inactive) in each case. The GI50 with 786-0, with SN12C, with COLO 205, in the test with UACC-257, in the test with MDA-N and in the test with Malme-3M was > 100 µM (inactive) in each case. Besides, the GI50 in the test with BT-549 is > 100 µM (inactive); in the test with MOLT-4 it was > 100 µM (inactive); with NCI-H23 it was > 100 µM (inactive); with A549 it was 73.8 µM (inactive); with MDA-MB-435, > 100 µM (inactive); in the test with HCT-15, more than 100 µM. In addition, the GI50 in the test with SK-OV-3 was > 100 µM (inactive).
